Assay results published in patent publication US9353090B2, “Heterocyclic carboxylic acids as activators of soluble guanylate cyclase” (Boehringer Ingelheim International GmbH, priority 2014, dated 2016).
In brackets after ≈: the same amount, converted by molar mass.

What was measured:
physchem = conditions: kinetic from dmso stock
[1] = Human liver microsome (HLM) metabolic stability assay; format: in vitro ADME; conditions: human liver microsomes
Outline: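 Compound at 1 uM incubated with human liver microsomes at 37° C. for 60 min after NADPH addition. Aliquots quenched in cold acetonitrile at 0, 5, 15, 30 and 60 min and analysed by LC/MS/MS. t1/2 from ln(% remaining) vs time slope; CLint, CLh and % Qh derived from it (n=1).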

[2] = molecular target: human soluble guanylate cyclase alpha 1 and beta 1 subunits (sGC) (Homo sapiens (Human), UniProt Q02108+Q02153); assay: sGC cellular activator assay (cGMP, HTRF), in the presence and absence of 50% human serum; format: cell-based; conditions: CHO cells stably expressing human sGC alpha 1/beta 1, preincubated with 40 microM ODQ; cGMP by HTRF; Table 2 does not state whether with or without 50% human serum
Outline: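 Heme-oxidized conditions: ODQ (40 microM, 1 h) pretreatment of CHO cells stably expressing human α1/β1 sGC, in buffer containing 0.1% BSA and IBMX.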

[3] = pH 2.2, aqueous buffer, Solubility (pH 2.2)
[4] = pH 4.5, aqueous buffer, Solubility (pH 4.5)
[5] = pH 6.8, aqueous buffer, Solubility (pH 6.8)

Chain of human soluble guanylate cyclase alpha 1 and beta 1 subunits (sGC) (Q02108 whole entry partner): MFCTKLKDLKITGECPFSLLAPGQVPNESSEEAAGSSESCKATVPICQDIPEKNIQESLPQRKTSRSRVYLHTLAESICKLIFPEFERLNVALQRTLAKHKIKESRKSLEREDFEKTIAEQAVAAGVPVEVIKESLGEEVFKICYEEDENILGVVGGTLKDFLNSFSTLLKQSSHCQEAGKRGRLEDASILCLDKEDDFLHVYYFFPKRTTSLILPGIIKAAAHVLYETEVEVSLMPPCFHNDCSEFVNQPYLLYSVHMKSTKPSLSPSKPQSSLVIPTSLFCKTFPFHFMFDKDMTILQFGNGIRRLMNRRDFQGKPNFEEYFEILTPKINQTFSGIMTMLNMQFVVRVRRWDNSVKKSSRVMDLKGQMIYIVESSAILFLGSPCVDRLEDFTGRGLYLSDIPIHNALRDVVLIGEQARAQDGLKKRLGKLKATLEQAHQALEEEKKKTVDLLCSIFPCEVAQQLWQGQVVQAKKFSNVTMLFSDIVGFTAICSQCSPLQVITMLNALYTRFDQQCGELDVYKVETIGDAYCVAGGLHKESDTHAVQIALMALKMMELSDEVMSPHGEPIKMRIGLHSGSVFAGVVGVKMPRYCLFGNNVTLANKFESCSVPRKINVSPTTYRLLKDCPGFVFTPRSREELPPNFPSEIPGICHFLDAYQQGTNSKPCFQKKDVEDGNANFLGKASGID
Chain of human soluble guanylate cyclase alpha 1 and beta 1 subunits (sGC) (Q02153 whole entry): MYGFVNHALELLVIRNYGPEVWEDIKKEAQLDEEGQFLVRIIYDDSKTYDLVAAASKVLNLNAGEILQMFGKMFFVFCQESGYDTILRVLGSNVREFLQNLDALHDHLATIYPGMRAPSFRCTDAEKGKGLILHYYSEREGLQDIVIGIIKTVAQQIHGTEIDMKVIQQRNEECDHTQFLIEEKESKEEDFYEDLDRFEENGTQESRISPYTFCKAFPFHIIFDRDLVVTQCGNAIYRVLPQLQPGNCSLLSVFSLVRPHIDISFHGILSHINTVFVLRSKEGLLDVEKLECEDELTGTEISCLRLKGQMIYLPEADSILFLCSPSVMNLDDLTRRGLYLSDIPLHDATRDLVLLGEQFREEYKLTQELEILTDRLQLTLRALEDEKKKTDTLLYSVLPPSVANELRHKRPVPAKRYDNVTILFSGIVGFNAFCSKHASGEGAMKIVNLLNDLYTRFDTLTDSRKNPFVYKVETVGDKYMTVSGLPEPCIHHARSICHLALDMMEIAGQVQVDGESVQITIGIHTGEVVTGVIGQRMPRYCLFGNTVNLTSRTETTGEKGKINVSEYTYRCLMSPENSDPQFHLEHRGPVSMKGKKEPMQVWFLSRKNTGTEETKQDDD

SMILES	solubility at 24 h (physchem; [3]) [µg/mL]	solubility at 24 h (physchem; [4]) [µg/mL]	solubility at 24 h (physchem; [5]) [µg/mL]	Metabolic stability (Qh %), % hepatic blood flow [1] [%]	EC50 [2] [nM]
Cc1ccc(OCc2cc(C)c3c(c2)CCN(C2COC2)C3)c(-c2cccc(N3C[C@@H]4C[C@]4(C(=O)O)C3)n2)c1 [Compound 38]	100 (≈ 190 µM)	85 (≈ 162 µM)	59 (≈ 112 µM)	<24	354
Cc1cccc(-c2csc(N3C[C@@H]4C[C@]4(C(=O)O)C3)n2)c1OCc1ccc2c(c1C)CCN(C1CCOCC1)CC2 [Compound 144]	110 (≈ 192 µM)	74 (≈ 129 µM)	62 (≈ 108 µM)	<24	10
Cc1cccc(-c2csc(N3C[C@H]4C[C@@]4(C(=O)O)[C@@H]3C)n2)c1OCc1ccc2c(c1C)CCN(C1COC1)C2 [Compound 156]	> 140	0.5 (≈ 0.916 µM)	8.9 (≈ 16.3 µM)	<24	387
COCc1cc(COc2c(C)cccc2-c2cccc(N3CC[C@H](C(=O)O)[C@H](OC)C3)n2)cc2c1CN(C1COC1)CC2 [Compound 285]	146 (≈ 248 µM)	111 (≈ 188 µM)	97.6 (≈ 166 µM)	<24	359
Cc1cccc(-c2csc(N3C[C@@H]4C[C@]4(C(=O)O)C3)n2)c1OCc1ccc2c(c1C)CCN(C1COC1)C2 [Compound 138]	100 (≈ 188 µM)	59 (≈ 111 µM)	65 (≈ 122 µM)	<24	18
Cc1ccc(OCc2ccc3c(c2C)CCN(C2COC2)CC3)c(-c2cccc(N3C[C@@H]4C[C@]4(C(=O)O)C3)n2)c1 [Compound 42]	96 (≈ 178 µM)	87 (≈ 161 µM)	58 (≈ 107 µM)	76	50
CCO[C@H]1CN(c2nccc(-c3cccc(C)c3OCc3cc4c(c(OC)c3)CN(C3CCOCC3)CC4)n2)CC[C@H]1C(=O)O [Compound 246]	117 (≈ 190 µM)	114 (≈ 184 µM)	85.4 (≈ 138 µM)	<24	15
CO[C@@H]1CN(c2cccc(-c3cccc(C)c3OCc3ccc4c(c3C)CCN(C3CCOCC3)CC4)n2)CC[C@H]1C(=O)O [Compound 297]	134 (≈ 224 µM)	93.7 (≈ 156 µM)	77.3 (≈ 129 µM)	<24	150
CO[C@H]1CN(c2nc(-c3cccc(C)c3OCc3ccc4c(c3)[C@@H](C)CN(C3COC3)CC4)cs2)CC[C@H]1C(=O)O [Compound 325]	131 (≈ 227 µM)	69.1 (≈ 120 µM)	67.4 (≈ 117 µM)	33	7
Cc1ccc(OCc2cc(C)c3c(c2)CCN(C2CCOC2)C3)c(-c2csc(N3CC[C@@]4(C(=O)O)C[C@H]4C3)n2)c1 (mixture of isomers) [Compound 122]	120	18	1.6	43	11
CO[C@@H]1CN(c2nc(-c3cccc(C)c3OCc3cc(F)c4c(c3)CCN(C3CCOCC3)CC4)cs2)CC[C@@H]1C(=O)O [Compound 244]	118 (≈ 193 µM)	109 (≈ 178 µM)	107 (≈ 176 µM)	<24	4
CCO[C@H]1CN(c2cccc(-c3cccc(Cl)c3OCc3cc(C)c4c(c3)CCN(C3CCOCC3)C4)n2)CC[C@H]1C(=O)O [Compound 256]	151 (≈ 243 µM)	82 (≈ 132 µM)	57.1 (≈ 92.1 µM)	89	3
Cc1ccc(OCc2ccc3c(c2C)CCN(C2CCOCC2)C3)c(-c2csc(N3C[C@@H]4C[C@]4(C(=O)O)C3)n2)c1 [Compound 146]	110 (≈ 197 µM)	59 (≈ 105 µM)	9.9 (≈ 17.7 µM)	26	57
Cc1cccc(-c2cccc(N3CC[C@@]4(C(=O)O)C[C@H]4C3)n2)c1OCc1ccc2c(c1)CCN(C1CCOCC1)C2 [Compound 13]	140 (≈ 253 µM)	120 (≈ 217 µM)	71 (≈ 128 µM)	42	6
CCc1cc(COc2c(C)cccc2-c2csc(N3CC[C@@H](C(=O)O)[C@@H](OC)C3)n2)cc2c1CN(C1CCOCC1)CC2 [Compound 170]	130 (≈ 215 µM)	90 (≈ 149 µM)	79 (≈ 130 µM)	<24	5
COC[C@H]1N(c2cccc(-c3cccc(C)c3OCc3ccc4c(c3C)CCN(C3CCOCC3)CC4)n2)C[C@@H]2C[C@@]21C(=O)O [Compound 61]	110 (≈ 180 µM)	96 (≈ 157 µM)	74 (≈ 121 µM)	<24	8
CO[C@@H]1CN(c2nc(-c3cccc(C)c3OCc3ccc4c(c3C)CCN(C3CCOCC3)C4)cs2)CC[C@@H]1C(=O)O [Compound 173]	120 (≈ 203 µM)	71 (≈ 120 µM)	75 (≈ 127 µM)	<24	21
CCO[C@@H]1CN(c2nc(-c3cccc(C)c3OCc3cc(C)c4c(c3F)CCN(C3CCOCC3)C4)cs2)CC[C@@H]1C(=O)O [Compound 241]	129 (≈ 207 µM)	98.5 (≈ 158 µM)	92.2 (≈ 148 µM)	42.5	2
CO[C@H]1CN(c2nc(-c3cccc(C)c3OCc3cc(C)c4c(c3)CCN(CC3COCCO3)C4)cs2)CC[C@H]1C(=O)O (some centres unmarked) [Compound 168]	130 (≈ 214 µM)	87 (≈ 143 µM)	81 (≈ 133 µM)	<24	53
CCc1cc(COc2c(C)cccc2-c2cccc(N3C[C@@H]4C[C@]4(C(=O)O)[C@H]3COC)n2)cc2c1CN(C1COC1)CC2 [Compound 54]	130 (≈ 223 µM)	90 (≈ 154 µM)	81 (≈ 139 µM)	39	16
CCO[C@@H]1CN(c2nc(-c3cc(C)ccc3OCc3cc4c(c(OC)c3)CN(C3CCOCC3)CC4)cs2)CC[C@@H]1C(=O)O [Compound 229]	122 (≈ 196 µM)	116 (≈ 187 µM)	114 (≈ 184 µM)	<24	4
Cc1ccc(OCc2cc(C)c3c(c2C)CCN(C2CCOCC2)C3)c(-c2cccc(N3C[C@@H]4C[C@]4(C(=O)O)C3)n2)c1 [Compound 39]	100 (≈ 176 µM)	91 (≈ 160 µM)	45 (≈ 79.3 µM)	<24	50
Cc1cccc(-c2csc(N3CC[C@@]4(C(=O)O)C[C@H]4C3)n2)c1OCc1ccc2c(c1C)CCN(C1CCOC1)CC2 (some centres unmarked) [Compound 106]	130 (≈ 227 µM)	66 (≈ 115 µM)	44 (≈ 76.7 µM)	39	5
COC[C@H]1N(c2nc(-c3cc(C)ccc3OCc3ccc4c(c3)CCN(C3CCOCC3)C4)cs2)C[C@@H]2C[C@@]21C(=O)O [Compound 163]	110 (≈ 187 µM)	77 (≈ 131 µM)	65 (≈ 110 µM)	<24	345
Cc1ccc(OCc2ccc3c(c2)CCN(C2COC2)C3)c(-c2cccc(N3CC[C@@]4(C(=O)O)C[C@H]4C3)n2)c1 [Compound 17]	100 (≈ 190 µM)	83 (≈ 158 µM)	39 (≈ 74.2 µM)	33	22
